ChEMBL document CHEMBL1201862, “PubChem BioAssay data set” (2004)
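96-well plates; 48 h exposure; 5 concentrations. Endpoints by linear interpolation between flanking doses. Not reached: highest tested concentration assigned. The concentration for 50% growth inhibition is given as GI50.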 The source made the active and inactive calls. No stated cut-off is given here; in the data, active = GI50 up to about 1.1 µM and inactive = higher.

Legend:
Experiment in all cases: DTP human tumour cell line panel, 48 h
KM-20L2 = tested on: KM-20L2
LXFL 529 = tested on: LXFL 529
RXF 631 = tested on: RXF 631
XF498 = tested on: XF498
HOP-18 = tested on: HOP-18
DLD-1 = tested on: DLD-1
DMS-114 = tested on: DMS-114
SNB-78 = tested on: SNB-78
DMS-273 = tested on: DMS-273

Structure (SMILES)	GI50 (KM-20L2)	GI50 (LXFL 529)	GI50 (RXF 631)	GI50 (XF498)	GI50 (HOP-18)	GI50 (DLD-1)	GI50 (DMS-114)	GI50 (SNB-78)	GI50 (DMS-273)
CSc1nc2c(nc(N)n2C2OCC(O)C(O)C2O)c(=O)n1C (stereo unspecified)	> 100 µM (inactive)	> 100 µM (inactive)	> 100 µM (inactive)	> 100 µM (inactive)	> 100 µM (inactive)	> 100 µM (inactive)	> 100 µM (inactive)	> 100 µM (inactive)	
COc1ccc2nc3cc(Cl)ccc3c(NCCC(=O)OCC(O)C(O)C(O[C@H](C)C(=O)NC(C)C(=O)NC(CCC(N)=O)C(=O)OCc3ccccc3)C(C=O)NC(C)=O)c2c1 (stereo partly specified)	17.2 µM (inactive)	17.3 µM (inactive)	19.6 µM (inactive)	18.5 µM (inactive)		17.4 µM (inactive)		32.5 µM (inactive)	14.2 µM (inactive)
O=C(CSc1c2ccccc2nc2ccccc12)Nc1ccccc1-c1ccccc1NC(=O)CSc1c2ccccc2nc2ccccc12	31.3 µM (inactive)	9.46 µM (inactive)		19.1 µM (inactive)	79.1 µM (inactive)	13.9 µM (inactive)	15 µM (inactive)	27.6 µM (inactive)	32.2 µM (inactive)
O=C1c2ccccc2C2(O)Oc3cccc(O)c3C12O (stereo unspecified)	> 100 µM (inactive)	> 100 µM (inactive)	> 100 µM (inactive)		> 100 µM (inactive)	> 100 µM (inactive)	> 100 µM (inactive)	> 100 µM (inactive)	> 100 µM (inactive)
CCCCCCCC/C=C\CCCCCCCC(=O)NCCN(CCN)C(=O)CCCCCCC/C=C\CCCCCCCC	> 100 µM (inactive)	> 100 µM (inactive)			> 100 µM (inactive)	> 100 µM (inactive)	> 100 µM (inactive)		> 100 µM (inactive)
COc1ccc2nc(C)cc(NCCCCCCCCCNc3cc(C)nc4ccc(OC)cc34)c2c1	0.946 µM (active)	1.17 µM (inactive)		2.21 µM (inactive)		2.31 µM (inactive)	1.15 µM (inactive)	1.8 µM (inactive)	0.931 µM (active)
COC(=O)CC(=O)C[P+](c1ccccc1)(c1ccccc1)c1ccccc1	> 218 µM (inactive)	89.9 µM (inactive)	> 218 µM (inactive)	45.4 µM (inactive)	39.8 µM (inactive)	194 µM (inactive)	> 218 µM (inactive)		> 218 µM (inactive)
O=C1Nc2ccc(Br)cc2/C1=N/Nc1ccc([N+](=O)[O-])cc1	72.1 µM (inactive)	22.8 µM (inactive)	17.3 µM (inactive)	23.7 µM (inactive)	17.7 µM (inactive)	31.5 µM (inactive)	18.5 µM (inactive)	18.9 µM (inactive)	9.95 µM (inactive)
O=C(Nc1cc(Cl)c(Cl)cc1Cl)C(=O)C(C(=O)c1ccc2ccccc2c1)C1OC(=O)c2ccccc21 (stereo unspecified)		10.6 µM (inactive)				14.4 µM (inactive)	9.2 µM (inactive)	8.43 µM (inactive)	
CC[C@@]1(O)C[C@H](OC2CC(N(C)C)C(OC3CC(O)C(OC4CCC(=O)C(C)O4)C(C)O3)C(C)O2)c2c(cc3c(c2O)C(=O)c2c(O)ccc(O)c2C3=O)[C@H]1C(=O)OC (stereo partly specified)					0.0128 µM (active)	< 1e-05 µM (active)			< 1e-05 µM (active)
COC(=O)CC(C(C(=O)OCc1ccccc1)C(C)O)N1C(=O)OC(c2ccccc2)C1c1ccccc1 (stereo unspecified)	> 100 µM (inactive)	> 100 µM (inactive)	> 100 µM (inactive)	24.9 µM (inactive)		> 100 µM (inactive)	81.5 µM (inactive)		> 100 µM (inactive)
CCCCNC(=O)C1C2CCC(O2)C1C(=O)O (stereo unspecified)	6.24 µM (inactive)	16 µM (inactive)	32.5 µM (inactive)	3.41 µM (inactive)	30.4 µM (inactive)	20.2 µM (inactive)	13.9 µM (inactive)	32.9 µM (inactive)	32.4 µM (inactive)
O=C(O)CCSCCCN1C(=O)c2ccccc2C1=O	> 100 µM (inactive)	> 100 µM (inactive)					> 100 µM (inactive)	> 100 µM (inactive)	
Cc1ccccc1Nc1nc2c(s1)C(=O)c1ccccc1C2=O	28.6 µM (inactive)	4.61 µM (inactive)		15.6 µM (inactive)	12.4 µM (inactive)	5.73 µM (inactive)	2 µM (inactive)	12.8 µM (inactive)	8.07 µM (inactive)
